Test results as given in patent US6844312B2, “Production of tyrosine hydroxylase positive neurons” (Stem Cell Therapeutics Inc., priority 2001, dated 2005).

System: neural stem cells
Test: Effect of PACAP in lieu of forskolin in the TH cocktail on neural stem cell culture
Type: cell-based, mice
Details: 2 nM PACAP versus 1 μM forskolin in the TH cocktail
Protocol: A control experiments using 1 μM forskolin and no PACAP was performed in parallel as a comparison.

pituitary adenylate cyclase activating polypeptide [PACAP]
effectiveness in the production of TH positive neurons: more effective than forskolin
